From US20030060499A1, “Novel therapeutic method” (priority 1998, published 2003) come the findings set out here.

Structures are written as SMILES. Structures can show the parent of a compound that is named as a salt.

The subject of data set [1] is Parkinson's patients. As to the kind of experiment: three year, international, multicentre, double-blind comparative clinical trial of ropinirole versus bromocriptine. In kind it is in vivo, human. The note with it: for patients considered responders (at least a 30% reduction from baseline in total motor examination score on the UPDRS): at the study's completion; for mean improvement in UPDRS motor score: three years. The source says:
In a three year, international, multicentre, double-blind comparative clinical trial, Parkinson's patients were randomised to receive either ropinirole (n=168) or bromocriptine (n=167). 33% of patients received selegiline concomitantly with either ropinirole or bromocriptine. Of those enrolled, 214 patients completed the study (approximately 39% of patients treated with ropinirole and 33% of patients treated with bromocriptine withdrew from the study). Efficacy was based on the following:
1 Mean Unified Parkinson's Disease Rating Scale (UPDRS) Activities of Daily Living (ADL) score (Part II) at completion
2 Improvement in UPDRS total motor examination score (Part III)
3 Percentage of patients who were considered responders, defined as those with at least a 30% reduction from baseline in total motor examination score on the UPDRS
4 Average combined ADL and motor score at endpoint
5 The percentage of patients who required supplemental levodopa therapy.

Data set [2] has as its system putamen dopaminergic function. As to the kind of experiment: 18 Fluoro-dopa PET scanning in five year, double-blind, multicentre study of ropinirole versus levodopa. Format: in vivo, human. The note with it: for loss of putamen dopaminergic function (mean percent change): all patients (Hoehn & Yahr I-III), approximately two years between scans, average of both sides of the brain; for loss of putamen dopaminergic function (mean percent change) / decrease in putamen dopaminergic function (mean percent change): 18 Fluoro-dopa PET; for decrease in putamen dopaminergic function (mean percent change): subgroup of patients with Parkinson's disease for less than 2 years. The protocol: In an ongoing five year, double-blind, multicentre study, patients with early Pakinson's disease (Hoehn & Yahr I-III) were randomised to receive either ropinirole or levodopa. Of those enrolled, 37 patients were scanned using 18 Fluoro-dopa PET scanning within the first year and then approximately two years later to measure the gradual decline in basal ganglia dopaminergic function. […] The following endpoints were assessed:
1 Mean percent change in putamen dopaminergic function in all patients (Hoehn & Yahr I-III)
2 Mean percent change in putamen dopaminergic function in Parkinson's disease patients with symptoms present for under two years
3 Mean percent change in putamen dopaminergic function in Parkinson's disease patients with symptoms present for more than two years

Setting [3] is: patients who completed the study.

`CC(C)C[C@H]1C(=O)N2CCC[C@H]2[C@]2(O)O[C@](NC(=O)[C@@H]3C=C4c5cccc6[nH]c(Br)c(c56)C[C@H]4N(C)C3)(C(C)C)C(=O)N12` [bromocriptine]: in data set [1], the “patients considered responders (at least a 30% reduction from baseline in total motor examination score on the UPDRS)” value is on record as 42%. For the same molecule, the “mean improvement in UPDRS motor score” value in data set [1] (setting [3]) was 22%. Moreover, in data set [1] (three year trial), the incidence of dyskinesias was 7% and the “patients who required supplemental levodopa” value amounted to 42%.

As to `N[C@@H](Cc1ccc(O)c(O)c1)C(=O)O` [levodopa], in data set [2], the “loss of putamen dopaminergic function (mean percent change)” value was 18% and the “decrease in putamen dopaminergic function (mean percent change)” value is 28%.

In the case of `CCCN(CCC)CCc1cccc2c1CC(=O)N2` [ropinirole, 4-[2-(di-n-propylamino)ethyl]-1,3-dihydro-2H-indolin-2-one hydrochlorid], the “average improvement in the combined ADL and motor scores versus bromocriptine” value in data set [1] (at endpoint, p=0.018) is given as “statistically significantly greater”. Also, the “patients considered responders (at least a 30% reduction from baseline in total motor examination score on the UPDRS)” value in data set [1] stood at 53%. For the same molecule, the incidence of dyskinesias in data set [1] (human, in vivo, 3 years) came to 8%. Further, the “mean improvement in UPDRS ADL score versus bromocriptine” value in data set [1] (patients who completed the study, p=0.009) is on record as “statistically significantly mean improvement”. Also, the “mean improvement in UPDRS motor score” value in data set [1] (setting [3]) is 31%. The “patients who required supplemental levodopa” value in data set [1] (three year trial) worked out at 34%. Moreover, in data set [2], the “loss of putamen dopaminergic function (mean percent change)” value stood at 13% and the “decrease in putamen dopaminergic function (mean percent change)” value is recorded as 14%. The “difference between treatment groups in change in putamen dopaminergic function” value in data set [2] (patients with Parkinson's disease for more than two years, ropinirole versus levodopa) was “no statistically significant difference”.
